Results published in US8962608B2, “Cycloalkylnitrile pyrazole carboxamides as janus kinase inhibitors” (Merck Sharp & Dohme Corp., priority 2011, dated 2015).
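Note: biochemical JAK kinase assay with HTRF detection.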

What follows are compounds tested against JAK2 (recombinant purified GST-tagged catalytic domain) (Homo sapiens (Human), UniProt O60674) (assay: biochemical).
JAK2 (recombinant purified GST-tagged catalytic domain), sequence (O60674 849-1124): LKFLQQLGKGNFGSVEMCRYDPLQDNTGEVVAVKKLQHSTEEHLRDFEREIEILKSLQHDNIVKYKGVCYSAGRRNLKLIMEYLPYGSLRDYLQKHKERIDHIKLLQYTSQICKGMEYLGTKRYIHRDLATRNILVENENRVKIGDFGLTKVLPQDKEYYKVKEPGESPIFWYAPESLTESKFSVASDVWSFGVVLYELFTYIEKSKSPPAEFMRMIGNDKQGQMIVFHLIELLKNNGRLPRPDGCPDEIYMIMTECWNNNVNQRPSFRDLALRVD
`CN(C)[C@@H]1CC[C@H](n2cc(C(N)=O)c(Nc3ccc(C(F)(F)F)nc3)n2)[C@@H](C#N)C1` (single isomer, unassigned) [Example 28-25, 1-[(1S,2S,4R or 1R,2R,4S)-2-cyano-4-(dimethylamino)cyclohexyl]-3-{[6-(trifluoromethyl)pyridin-3-yl]amino}-1H-pyrazole-4-carboxamide] showed an IC50 of 155 nM.
In the case of `N#C[C@H]1C[C@H](N2CCC2)CC[C@@H]1n1cc(C(N)=O)c(Nc2ccc(Cl)c(F)c2)n1` (single isomer, unassigned) [Example 28-37, 1-[(1S,2S,4R or 1R,2R,4S)-4-azetidin-1-yl-2-cyanocyclohexyl]-3-[(4-chloro-3-fluorophenyl)amino]-1H-pyrazole-4-carboxamide], the IC50 is reported as 120 nM.
`CN(C(C1CC1)C1CC1)[C@@H]1CC[C@H](n2cc(C(N)=O)c(Nc3ccc(S(=O)(=O)C(F)(F)F)cc3)n2)[C@@H](C#N)C1` (single isomer, unassigned) [Example 28-179, 1-{(1S,2S,4R or 1R,2R,4S)-2-cyano-4-[(dicyclopropyl-methyl)(methyl)amino]cyclo-hexyl}-3-({4-[(trifluoromethyl)sulfonyl]phen-yl}amino)-1H-pyrazole-4-carboxamide] showed an IC50 of 170 nM.
`CC(N[C@@H]1CC[C@H](n2cc(C(N)=O)c(Nc3ccc(S(=O)(=O)C(F)(F)F)cc3)n2)[C@@H](C#N)C1)C1CC1` (single isomer, unassigned) [Example 28-177, 1-[(1S,2S,4R or 1R,2R,4S)-2-cyano-4-{[(1S)-1-cyclopropylethyl]amino}cyclo-hexyl]-3-({4-[(trifluoromethyl)sulfonyl]phen-yl]amino)-1H-pyrazole-4-carboxamide] gave an IC50 of 43 nM.
`N#C[C@@H]1CCCCC1n1cc(C(N)=O)c(Nc2ccccc2)n1` (mixture of isomers) [Example 1-3, 1-[(1S,2R and 1R,2S)-2-cyanocyclohexyl]-3-(phenylamino)-1H-pyrazole-4-carboxamide] was tested, and the IC50 was 138 nM.
Compound `N#C[C@H]1C[C@@H](NCC(F)F)CCC1n1cc(C(N)=O)c(Nc2ccc(S(=O)(=O)C(F)(F)F)cc2)n1` (mixture of isomers) [Example 27-14, 1-{(1S,2S,4S and 1R,2R,4R)-2-cyano-4-[(2,2-difluoroethyl)amino]cyclohexyl}-3-({4-[(trifluoromethyl)sulfonyl]phenyl)amino)-1H-pyrazole-4-carboxamide] has an IC50 of 11 nM.
For `N#C[C@H]1C[C@@H](O)CC[C@@H]1n1cc(C(N)=O)c(Nc2ccc(C3CC3)cc2)n1` (single isomer, unassigned) [Example 33-18, 1-[(1S,2S,4S or 1R,2R,4R)-2-cyano-4-hydroxycyclohexyl]-3-[(4-cyclopropylphenyl)amino]-1H-pyrazole-4-carboxamide], the IC50 was 10 nM.
In the case of `CC1(CN[C@H]2CCC(n3cc(C(N)=O)c(Nc4ccc(Cl)cc4)n3)[C@@H](C#N)C2)COC1` (single isomer, unassigned) [Example 28-217, 3-[(4-chlorophenyl)amino]-1-[(1S,2S,4S or 1R,2R,4R)-2-cyano-4-{[(3-methyloxetan-3-yl)methyl]amino}cyclohexyl]-1H-pyrazole-4-carboxamide], the IC50 is reported as 47 nM.
With `CN[C@H]1CC[C@H](n2cc(C(N)=O)c(Nc3ccc(Cl)c(F)c3)n2)[C@@H](C#N)C1` (single isomer, unassigned) [Example 28-43, 3-[(4-chloro-3-fluorophenyl)amino]-1-[(1S,2S,4S or 1R,2R,4R)-2-cyano-4-(methylamino)cyclohexyl]-1H-pyrazole-4-carboxamide] the IC50 was 26 nM.
In the case of `CN(CC(F)(F)F)[C@H]1CCC(n2cc(C(N)=O)c(Nc3ccnc(F)c3)n2)[C@@H](C#N)C1` (single isomer, unassigned) [Example 28-233, 1-{(1S,2S,4S or 1R,2R,4R)-2-cyano-4-[methyl(2,2,2-trifluoroethyl)amino]cyclo-hexyl}-3-[(2-fluoropyridin-4-yl)amino]-1 H-pyrazole-4-carboxamide], the IC50 is reported as 6 nM.
In the case of `CS(=O)(=O)c1ccc(Nc2nn(C3CCCC[C@H]3C#N)cc2C(N)=O)cc1` (mixture of isomers) [Example 2-14, 1-[(1S,2R and 1R,2S)-2-cyanocyclohexyl]-3-{[4-(methylsulfonyl)phenyl]amino}-1H-pyrazole-4-carboxamide], the IC50 is reported as 18 nM.
In the case of `N#C[C@H]1C[C@H](O)CC[C@@H]1n1cc(C(N)=O)c(Nc2ccc(C(F)(F)F)c(F)c2)n1` (single isomer, unassigned) [Example 25-23, 1-[(1S,2S,4R or 1R,2R,4S)-2-cyano-4-hydroxycyclohexyl]-3-{[3-fluoro-4-(trifluoromethyl)phenyl]amino}-1H-pyrazole-4-carboxamide], the IC50 is reported as 28 nM.
For `N#C[C@H]1C[C@@H](O)CC[C@@H]1n1cc(C(N)=O)c(Nc2ccc(Cl)nc2)n1` (single isomer, unassigned) [Example 33-14, 3-[(6-chloropyridin-3-yl)amino]-1-[(1S,2S,4S or 1R,2R,4R)-2-cyano-4-hydroxycyclohexyl]-1H-pyrazole-4-carboxamide], the IC50 was 14 nM.
For `CCS(=O)(=O)c1ccc(Nc2nn(C3CCCC[C@@H]3C#N)cc2C(N)=O)cc1` (mixture of isomers) [Example 17-10, 1-[(1S,2S and 1R,2R)-2-cyanocyclohexyl]-3-{[4-(ethylsulfonyl)phenyl]amino}-1H-pyrazole-4-carboxamide], the IC50 was 4 nM.
In the case of `C[C@@H](N[C@H]1CC[C@H](n2cc(C(N)=O)c(Nc3ccc(S(=O)(=O)C(F)(F)F)cc3)n2)[C@@H](C#N)C1)C1CC1` (single isomer, unassigned) [Example 28-182, 1-[(1S,2S,4S or 1R,2R,4R)-2-cyano-4-{[(1R)-1-cyclopropylethyl]amino}cyclo-hexyl]-3-({4-[(trifluoromethyl)sulfonyl]phen-yl}amino)-1H-pyrazole-4-carboxamide], the IC50 is reported as 12 nM.
With `C[C@H](N[C@@H]1CC[C@H](n2cc(C(N)=O)c(Nc3ccc(S(=O)(=O)C(F)(F)F)cc3)n2)[C@@H](C#N)C1)C1CC1` (single isomer, unassigned) [Example 28-185, 1-[(1S,2S,4R or 1R,2R,4S)-2-cyano-4-{[(1S)-1-cyclopropylethyl]amino}cyclo-hexyl]-3-({4-[(trifluoromethyl)sulfonyl]phen-yl}amino)-1H-pyrazole-4-carboxamide] the IC50 was 83 nM.
`CCNC1CCC(n2cc(C(N)=O)c(Nc3ccc(S(=O)(=O)C(F)(F)F)cc3)n2)[C@@H](C#N)C1` (mixture of isomers) [Example 27-5, 1-[(1S,2S and 1R,2R)-2-cyano-4-(ethylamino)cyclohexyl]-3-({4-[(trifluoromethyl)sulfonyl]phenyl}amino)-1H-pyrazole-4-carboxamide] gave an IC50 of 11 nM.
With `N#C[C@H]1C[C@@H](NCCC(F)(F)F)CC[C@@H]1n1cc(C(N)=O)c(Nc2ccc(S(=O)(=O)C(F)(F)F)cc2)n1` (single isomer, unassigned) [Example 28-166, 1-{(1S,2S,4S or 1R,2R,4R)-2-cyano-4-[(3,3,3-trifluoro-propyl)amino]cyclohexyl}-3-({4-[(trifluoro-methyl)sulfonyl]phenyl}amino)-1H-pyrazole-4-carboxamide] the IC50 was 55 nM.
With `N#C[C@H]1C[C@H](NCCC(F)(F)F)CC[C@@H]1n1cc(C(N)=O)c(Nc2ccc(S(=O)(=O)C(F)(F)F)cc2)n1` (single isomer, unassigned) [Example 28-167, 1-{(1S,2S,4R or 1R,2R,4S)-2-cyano-4-[(3,3,3-trifluoropropyl)amino]cyclo-hexyl}-3-({4-[(trifluoro-methyl)sulfonyl]phenyl}amino)-1H-pyrazole-4-carboxamide] the IC50 was 82 nM.
